Assay results published in patent US8835428B2, “Diacylglycerol acyltransferase inhibitors” (Piramal Enterprises Limited, priority 2008, dated 2014).

molecular target: T1, hDGAT1 (Homo sapiens, UniProt O75907); experiment: In-vitro DGAT1 assay (hDGAT1 microsomes from Sf9 cells, 14C oleoyl CoA, triglyceride formation); assay type: biochemical; conditions: At 10 μM
T1 construct: host or cells: Sf9 insect cells (baculovirus); microsomal preparation
T1 sequence (O75907 1-488): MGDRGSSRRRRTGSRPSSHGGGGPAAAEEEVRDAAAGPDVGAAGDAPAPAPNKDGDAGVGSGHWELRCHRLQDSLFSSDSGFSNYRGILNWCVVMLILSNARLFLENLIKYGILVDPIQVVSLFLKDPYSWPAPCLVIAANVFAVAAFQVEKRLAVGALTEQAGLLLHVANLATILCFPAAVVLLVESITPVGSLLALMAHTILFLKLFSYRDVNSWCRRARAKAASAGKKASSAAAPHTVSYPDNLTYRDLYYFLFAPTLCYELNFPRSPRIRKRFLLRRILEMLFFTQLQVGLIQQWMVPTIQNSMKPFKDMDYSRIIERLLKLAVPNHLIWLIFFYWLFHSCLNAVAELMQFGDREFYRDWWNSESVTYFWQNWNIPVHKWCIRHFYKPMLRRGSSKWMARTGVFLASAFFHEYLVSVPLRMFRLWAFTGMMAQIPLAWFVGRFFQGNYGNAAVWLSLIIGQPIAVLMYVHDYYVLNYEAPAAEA
How it was run: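 Compounds tested in duplicate at 10, 5 and 1 μM for 10 min at 37 °C. Reaction: Sf9-expressed hDGAT1 microsomes (2.5–10 μg), [14C]oleoyl-CoA plus 409.5–1638 μM dioleoylglycerol, pH 7.4 Tris-HCl with fatty-acid-free BSA. Radiolabelled triglyceride extracted into heptane and scintillation-counted.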

inhibition at 10 µM | % inhibition of hDGAT1 | Structure (SMILES)
0 to 50% | – | COC(=O)[C@H](CC(C)C)NC(=O)c1onc(-c2ccc(NC(=O)Nc3ccccc3)cc2)c1-c1ccccc1 [Example 90, (S)-4-Methyl-2-({4-phenyl-3-[4-(3-phenyl-ureido)-phenyl]-isoxazole-5-carbonyl}-amino)-pentanoic acid methyl ester]
0 to 50% | – | CC(C)C[C@H](NC(=O)c1onc(-c2ccc(NC(=O)Nc3ccccc3)cc2)c1-c1ccccc1)C(=O)O [Example 91, (S)-4-Methyl-2-({4-phenyl-3-[4-(3-phenyl-ureido)-phenyl]-isoxazole-5-carbonyl}-amino)-pentanoic acid]
0 to 50% | – | COC(=O)[C@@H](NC(=O)c1onc(-c2ccc(NC(=O)Nc3ccc(F)cc3)cc2)c1-c1ccccc1)C(C)C [Example 92, (S)-2-[(3-{4-[3-(4-Fluoro-phenyl)-ureido]-phenyl}-4-phenyl-isoxazole-5-carbonyl)-amino]-3-methyl-butyric acid methyl ester]
0 to 50% | – | CC(C)[C@H](NC(=O)c1onc(-c2ccc(NC(=O)Nc3ccc(F)cc3)cc2)c1-c1ccccc1)C(=O)O [Example 93, (S)-2-[(3-{4-[3-(4-Fluoro-phenyl)-ureido]-phenyl}-4-phenyl-isoxazole-5-carbonyl)-amino]-3-methyl-butyric acid]
0 to 50% | – | COC(=O)[C@H](CC(C)C)NC(=O)c1onc(-c2ccc(Nc3nc4ccc(F)cc4s3)cc2)c1-c1ccccc1 [Example 94, (S)-2-({3-[4-(6-Fluoro-benzothiazol-2-ylamino)-phenyl]-4-phenyl-isoxazole-5-carbonyl}-amino)-4-methyl-pentanoic acid methyl ester]
0 to 50% | – | CC(C)C[C@H](NC(=O)c1onc(-c2ccc(Nc3nc4ccc(F)cc4s3)cc2)c1-c1ccccc1)C(=O)O [Example 95, (S)-2-({3-[4-(6-Fluoro-benzothiazol-2-ylamino)-phenyl]-4-phenyl-isoxazole-5-carbonyl}-amino)-4-methyl-pentanoic acid]
– | ++ (>50% Inhibition ≦75) | COC(=O)[C@@H](NC(=O)c1cc(-c2ccc(NC(=O)Nc3ccc(F)cc3)c(F)c2)no1)C(C)C [Example 96]
– | +++ (>75% Inhibition ≦100) | CC(C)[C@H](NC(=O)c1cc(-c2ccc(NC(=O)Nc3ccc(F)cc3)c(F)c2)no1)C(=O)O [Example 97]
50 to 75% | – | Cc1cc(-c2cc(C(=O)NC(C(=O)O)C(C)C)on2)ccc1NC(=O)Nc1c(F)cccc1F (centres unmarked) [Example 98, 2-(3-(4-(3-(2,6-Difluorophenyl)ureido)-3-methylphenyl)isoxazole-5-carboxamido)-3-methylbutanoic acid]
0 to 50% | – | Cc1cc(-c2cc(C(=O)NC(CC(C)C)C(=O)O)on2)ccc1NC(=O)Nc1c(F)cccc1F (centres unmarked) [Example 100, 2-(3-(4-(3-(2,6-Difluorophenyl)ureido)-3-methylphenyl)isoxazole-5-carboxamido)-4-methylpentanoic acid]
0 to 50% | – | COC(=O)C(C)NC(=O)c1cc(-c2ccc(NC(=O)Nc3c(F)cccc3F)c(C)c2)no1 (centres unmarked) [Example 101, Methyl 2-(3-(4-(3-(2,6-difluorophenyl)ureido)-3-methylphenyl)isoxazole-5-carboxamido)propanoate]
0 to 50% | – | Cc1cc(-c2cc(C(=O)NC(C)C(=O)O)on2)ccc1NC(=O)Nc1c(F)cccc1F (centres unmarked) [Example 102, 2-(3-(4-(3-(2,6-Difluorophenyl)ureido)-3-methylphenyl)isoxazole-5-carboxamido)propanoic acid]
75 to 100% | – | Cc1cc(-c2cc(C(=O)NC(C(=O)O)C(C)C)on2)ccc1NC(=O)Nc1ccc(F)cc1F (centres unmarked) [Example 103, 2-(3-(4-(3-(2,4-Difluorophenyl)ureido)-3-methylphenyl)isoxazole-5-carboxamido)-3-methylbutanoic acid]
75 to 100% | – | CC(C)C(NC(=O)c1nc(-c2ccc(NC(=O)Nc3ccc(F)cc3F)cc2)no1)C(=O)O (centres unmarked) [Example 104, 2-(3-(4-(3-(2,4-difluorophenyl)ureido)phenyl)-1,2,4-oxadiazole-5-carboxamido)-3-methylbutanoic acid]
50 to 75% | – | COC(=O)C(NC(=O)c1cc(-c2ccc(NC(=O)Nc3ccccc3F)cc2)no1)C(C)C (centres unmarked) [Example 105, 2-[(3-{4-[3-(2-Fluoro-phenyl)ureido]-phenyl}-isoxazole-5-carbonyl)-amino]-3-methyl-butyric acid methyl ester]
75 to 100% | – | CC(C)C(NC(=O)c1cc(-c2ccc(NC(=O)Nc3ccccc3F)cc2)no1)C(=O)O (centres unmarked) [Example 106, 2-(3-(4-(3-(2-Fluorophenyl)ureido)phenyl)isoxazole-5-carboxamido)-3-methylbutanoic acid]

inhibition at 10 µM | % inhibition of hDGAT1 | Structure (SMILES)
0 to 50% | – | COC(=O)C(NC(=O)c1cc(-c2ccc(NC(=O)NCc3ccccc3)cc2)no1)C(C)C (centres unmarked) [Example 107, Methyl 2-(3-(4-(3-benzylureido)phenyl)isoxazole-5-carboxamido)-3-methylbutanoate]
50 to 75% | – | CC(C)C(NC(=O)c1cc(-c2ccc(NC(=O)NCc3ccccc3)cc2)no1)C(=O)O (centres unmarked) [Example 108, 2-(3-(4-(3-Benzylureido)phenyl)isoxazole-5-carboxamido)-3-methylbutanoic acid]
0 to 50% | – | COC(=O)C(CC(C)C)NC(=O)c1cc(-c2ccc(NC(=O)NCc3ccccc3)cc2)no1 (centres unmarked) [Example 109, Methyl 2-(3-(4-(3-benzylureido)phenyl)isoxazole-5-carboxamido)-4-methylpentanoate]
0 to 50% | – | CC(C)CC(NC(=O)c1cc(-c2ccc(NC(=O)NCc3ccccc3)cc2)no1)C(=O)O (centres unmarked) [Example 110, 2-(3-(4-(3-Benzylureido)phenyl)isoxazole-5-carboxamido)-4-methyl pentanoic acid]
50 to 75% | – | COC(=O)C(NC(=O)c1cc(-c2ccc(NC(=O)Nc3ccc(F)cc3F)cc2)no1)C(C)C (centres unmarked) [Example 111, Methyl 2-(3-(4-(3-(2,4-difluorophenyl)ureido)phenyl)isoxazole-5-carboxamido)-3-methylbutanoate]
75 to 100% | – | CC(C)C(NC(=O)c1cc(-c2ccc(NC(=O)Nc3ccc(F)cc3F)cc2)no1)C(=O)O (centres unmarked) [Example 112, 2-(3-(4-(3-(2,4-Difluorophenyl)ureido)phenyl)isoxazole-5-carboxamido)-3-methylbutanoic acid]
0 to 50% | – | COC(=O)C(CC(C)C)NC(=O)c1cc(-c2ccc(NC(=O)Nc3ccc(F)cc3F)cc2)no1 (centres unmarked) [Example 113, Methyl 2-(3-(4-(3-(2,4-difluorophenyl)ureido)phenyl)isoxazole-5-carboxamido)-4-methylpentanoate]
75 to 100% | – | CC(C)CC(NC(=O)c1cc(-c2ccc(NC(=O)Nc3ccc(F)cc3F)cc2)no1)C(=O)O (centres unmarked) [Example 114, 2-(3-(4-(3-(2,4-Difluorophenyl)ureido)phenyl)isoxazole-5-carboxamido)-4-methylpentanoic acid]
0 to 50% | – | COC(=O)C(C)NC(=O)c1cc(-c2ccc(NC(=O)Nc3ccc(F)cc3)cc2)no1 (centres unmarked) [Example 115, Methyl 2-(3-(4-(3-(4-fluorophenyl)ureido)phenyl)isoxazole-5-carboxamido)propanoate]
75 to 100% | – | CC(NC(=O)c1cc(-c2ccc(NC(=O)Nc3ccc(F)cc3)cc2)no1)C(=O)O (centres unmarked) [Example 116, 2-(3-(4-(3-(4-fluorophenyl)ureido)phenyl)isoxazole-5-carboxamido) propanoic acid]
50 to 75% | – | COC(=O)C(C)(C)NC(=O)c1cc(-c2ccc(NC(=O)Nc3ccc(F)cc3)cc2)no1 [Example 117, Methyl 2-(3-(4-(3-(4-fluorophenyl)ureido)phenyl)isoxazole-5-carboxamido)-2-methylpropanoate]
50 to 75% | – | CC(C)(NC(=O)c1cc(-c2ccc(NC(=O)Nc3ccc(F)cc3)cc2)no1)C(=O)O [Example 118, 2-(3-(4-(3-(4-fluorophenyl)ureido)phenyl)isoxazole-5-carboxamido)-2-methylpropanoic acid]
50 to 75% | – | COC(=O)C1(NC(=O)c2cc(-c3ccc(NC(=O)Nc4ccc(F)cc4)cc3)no2)CCCC1 [Example 119, Methyl 1-(3-(4-(3-(4-fluorophenyl)ureido)phenyl)isoxazole-5-carboxamido)cyclopentanecarboxylate]
50 to 75% | – | O=C(Nc1ccc(F)cc1)Nc1ccc(-c2cc(C(=O)NC3(C(=O)O)CCCC3)on2)cc1 [Example 120, 1-(3-(4-(3-(4-fluorophenyl)ureido)phenyl)isoxazole-5-carboxamido) cyclopentanecarboxylic acid]
50 to 75% | – | COC(=O)C(C)(C)NC(=O)c1cc(-c2ccc(NC(=O)Nc3ccccc3)cc2)no1 [Example 121, Methyl 2-methyl-2-(3-(4-(3-phenylureido)phenyl)isoxazole-5-carboxamido)propanoate]
75 to 100% | – | CC(C)(NC(=O)c1cc(-c2ccc(NC(=O)Nc3ccccc3)cc2)no1)C(=O)O [Example 122, 2-methyl-2-(3-(4-(3-phenylureido)phenyl)isoxazole-5-carboxamido) propanoic acid]
